Laboratory results from publication PMC11054433, “Nature-Inspired 1-Phenylpyrrolo[2,1-a]isoquinoline Scaffold for Novel Antiproliferative Agents Circumventing P-Glycoprotein-Dependent Multidrug Resistance” (Pharmaceuticals, 2024).
Converted amounts (≈) assume the structure as drawn. “And” between values parts separate entries of the source, which are not always exact repeats. Identical values can stand only once. Like-named read-outs stand apart in the source and are kept apart here.

Experiments:
[1] = tested on: RD (rhabdomyosarcoma) cells; assay: MTT antiproliferative (cytotoxicity) assay, RD cells; assay type: cell-based, Human; conditions: Homo sapiens, Rhabdomyosarcoma cell, 72 h, mean (SD), triplicate, n.a. = not active at 100 μM, >100 = less than 60% inhibition at 100 μM
Protocol: (§1) The newly synthesized 1-Ph-DHPIQs, along with the previously reported derivatives 4a, 4c, 6a and 6c, with camptothecin and doxorubicin as positive controls, were tested at the maximum concentration of 100 μM for their antiproliferative activity, using an MTT assay on RD, HCT116, HeLa and A549 cancer cell lines. Compounds showing more than 50% inhibition were tested at lower scalar concentrations, and IC50 values were calculated by interpolation of the dose-response curves (Table 1). […]
(§2) The antiproliferative activity of the newly synthesized compounds, along with some previously reported analogs, and camptothecin and doxorubicin as positive controls was determined by the MTT (3-(4,5-dimethylthiazol-2-yl)-2,5-diphenyltetrazolium bromide) assay. The cells were seeded at a concentration of 1 × 10 ^4 cells/200 μL in a 96-well plate and cultured at 37 °C in a humidified atmosphere with 5% CO2. After 24 h of incubation, scalar concentrations of each test compound (100 to 1.56 μmol·L^−1) were added to the cancer cell culture and the cells were then cultured under the same conditions for 72 hr. Each concentration of the test compound was assayed in triplicate. […] Wells with the 0.1% v/v DMSO were used as controls. After incubation, 20 μL of MTT (5 mg·mL^−1) was added to each well and the plates were incubated for a further 2 h. Next, media were removed from the plates, and 100 μL of DMSO was added to each well to dissolve the formed formazan crystals. Using a flatbed analyzer (Victor^3, PerkinElmer, Waltham, MA, USA), the optical density was determined at 530 nm, minus the measured background absorbance at 620 nm. The concentration value, which causes 50% inhibition of cell population growth (IC50), was determined from the dose-dependent curves using the OriginPro 9.0 software.

[2] = tested on: HCT116 (colon cancer) cells; assay: MTT antiproliferative (cytotoxicity) assay, HCT116 cells; assay type: cell-based, Human; conditions: Homo sapiens, HCT-116, 72 h, mean (SD), triplicate, n.a. = not active at 100 μM, >100 = less than 60% inhibition at 100 μM
Protocol: as §1, §2

[3] = tested on: HeLa (adenocarcinoma of the cervix uterus) cells; assay: MTT antiproliferative (cytotoxicity) assay, HeLa cells; assay type: cell-based, Human; conditions: Homo sapiens, HeLa, 72 h, mean (SD), triplicate, n.a. = not active at 100 μM, >100 = less than 60% inhibition at 100 μM
Protocol: as §1, §2

[4] = tested on: A549 (lung adenocarcinoma) cells; assay: MTT antiproliferative (cytotoxicity) assay, A549 cells; assay type: cell-based, Human; conditions: Homo sapiens, A549, 72 h, mean (SD), triplicate, n.a. = not active at 100 μM, >100 = less than 60% inhibition at 100 μM
Protocol: The antiproliferative activity of the newly synthesized compounds, along with some previously reported analogs, and camptothecin and doxorubicin as positive controls was determined by the MTT (3-(4,5-dimethylthiazol-2-yl)-2,5-diphenyltetrazolium bromide) assay. […] Each concentration of the test compound was assayed in triplicate. […] Wells with the 0.1% v/v DMSO were used as controls. After incubation, 20 μL of MTT (5 mg·mL^−1) was added to each well and the plates were incubated for a further 2 h. Next, media were removed from the plates, and 100 μL of DMSO was added to each well to dissolve the formed formazan crystals. Using a flatbed analyzer (Victor^3, PerkinElmer, Waltham, MA, USA), the optical density was determined at 530 nm, minus the measured background absorbance at 620 nm.

[5] = Kinetic solubility in PBS by RP-HPLC; assay type: physicochemical; conditions: phosphate buffered saline, 25 °C, aqueous buffer, kinetic from dmso stock; PBS (50 mM, pH 7.4, 0.15 M KCl) at 25 ± 1 °C; read-out: S (solubility)
Protocol: Sample solution at 200 μM in PBS (50 mM, pH 7.4, KCl 0.15 M) from a 10 mM stock solution in DMSO was incubated at room temperature (25 ± 1 °C) for 2 h, following shaking of the suspension on an orbital shaker at 250 rpm, and then separated by […]. Immediately after the filtration step, 100 µL of filtrate was transferred into 100 µL of 1:1 (v/v) mixture of DMSO and PBS (50 mM, pH 7.4, KCl 0.15 M), to avoid precipitation from the saturated solution and analyzed by HPLC. The peak area was plotted against a calibration curve of the tested compound in MeOH [21]. Analytical conditions were as follows. Mobile Phase: MeOH/ammonium formate 20 mM pH 4.7 (70:30, 75:25); MeOH 0.1% TFA/H2O 0.1% TFA (70:30, 60:40); stationary phase: Phenomenex, Kinetex 5 μ, C18, 100 Å (150 × 4.6 mm); flux: 1 mL/min; injection: 10 μL, 265, 290, 320 nm wavelength. HPLC analyses were performed on an Agilent HPLC 1260 Infinity Series Integrated System (Agilent Technologies, Milan, Italy).

[6] = Lipophilicity by RP-HPLC (polycratic capacity factor); assay type: physicochemical; conditions: capacity factor extrapolated to 100% aqueous mobile phase, aqueous component pH 4.7
Protocol: To quantitate the effect of hydrophobicity on the biological activity of the examined compounds, a relative lipophilicity scale was determined by RP-HPLC [20]. The polycratic capacity factor (log k′w) for each compound in Table 2 was experimentally determined (details in the experimental section) and compared with 1-octanol–water partition coefficient calculated (Clog P) with ACDLabs software (release 10.0; Advanced Chemistry Development, Inc., Toronto, ON, Canada). Log k′w values are quite well correlated with Clog Ps for the whole series (r^2 = 0.791). However, omitting from the regression the two Mannich bases 8b and 8c, which, due to their basicity (pKas about 6.9, estimated by ACDLabs software), should be predominantly in the protonated forms at pH 4.7 (i.e., the pH of the aqueous component of the mobile phase in RP-HPLC), the correlation slightly improves (r^2 = 0.859), providing a linear equation with a slope equal to +0.8 and an intercept of about −0.1.
The lipophilicity parameters were determined by an RP-HPLC technique. Methanol solution of DHPIQ derivatives (1 mg/mL) were analyzed by an Agilent 1260 infinite HPLC system (Agilent Technologies, Milan, Italy) equipped with a diode array detector (DAD), and a Phenomenex, Kinetex 5 μ, C18, 100 Å (150 × 4.6 mm), and eluted with different percentage of mobile phase composition (0.05 increments of MeOH volume fractions in 20 mM ammonium formate buffer at pH 4.7 or water 0.1% v/v TFA, with φ ranging between 0.85 and 0.30). The chromatographic measurements were carried out at 25 ± 1 °C at a flow rate of 1 mL·min^−1 and at 265, 290, 320 nm wavelengths. The log of capacity factors (log k′ = log (tR − t0)/t0) of each compound at different mobile phase compositions was calculated; tR represents the retention time of the solute and t0 is the column dead time, measured as the elution time of a KNO3 solution in MeOH. For each compound, the log k′ values increased linearly with decreasing MeOH volume fraction. The logarithms of the capacity factor extrapolated to 100% aqueous mobile phase (log k′w) were calculated from the linear regressions on at least five data points (r^2 > 0.9984).

[7] = target: P-glycoprotein (P-gp) (Homo sapiens, UniProt P08183); assay: Calcein-AM transport inhibition in MDCK-MDR1 cells overexpressing P-gp; conditions: for IC50: calcein-AM, mean (SD), at least two independent experiments in triplicate; for P-gp/MRP1 selectivity (toward P-gp): ratio of MRP1 and P-gp inhibition potency
Protocol: (§3) The P-gp inhibitory potency of eight DHPIQs was evaluated by measuring the transport inhibition of calcein-AM, a profluorescent P-gp substrate, in the MDCK-MDR1 cell line overexpressing P-gp. Moreover, to evaluate the MRP1 inhibitor activity, the same compounds were screened in MDCK-MRP1 cells overexpressing MRP1.
(§4) According to previously described assays [9], MDCK-MDR1 and MDCK-MRP1 cell lines (50,000 cells per well) were seeded into a black CulturePlate 96-well plate with 100 μL medium and allowed to become confluent overnight. […] Saline buffer (100 μL) was added to each well, and the plate was read by a PerkinElmer Victor3 spectrofluorimeter at excitation and emission wavelengths of 485 nm and 535 nm, respectively. In these experimental conditions, calcein cell accumulation in the absence and in the presence of the test compound was evaluated, and the fluorescence basal level was estimated by untreated cells. In the treated wells, the increase of fluorescence with respect to basal level was measured. IC50 values were determined by interpolating the curve of fluorescence increase percentage versus log [conc.].

[8] = target: multidrug-resistance-associated protein-1 (MRP1) (Homo sapiens, UniProt P33527); assay: Calcein-AM transport inhibition in MDCK-MRP1 cells overexpressing MRP1
Protocol: as §3, §4

[9] = target: human serum albumin (HSA) (Homo sapiens, UniProt P02768); assay: Binding affinity to immobilized HSA by surface plasmon resonance (SPR)
Protocol: By plotting the response at equilibrium, the dissociation constant (KD) value was determined for each test compound.
Fatty acid-free HSA (A3782 from Merck, KGaA Sigma-Aldrich, Darmstadt, Germany) was applied to functionalize the surface of a COOH V sensor chip (Pall FortèBio, Fremont Boulevard, CA, USA), by using amine coupling (EDC/NHS). HSA aqueous stock solution was diluted at the final concentration of 50 μg·mL^−1 in 10 mM sodium acetate buffer (pH 5.0), and immobilization in peripheral flow cells 1 and 3 (unmodified dextran surface in middle flow cell 2 used as a reference) at a final apparent level of about 5000 RU was achieved by applying the following protocol: injection of EDC/NHS (freshly mixed 0.4 M EDC and 0.1 M NHS) 1:1 v/v at a flow of 25 μL·min^−1 for 4 min; injection of HSA solution at a flow of 25 μL·min^−1 for 8 min; capping on unreacted activated carboxyl groups by injection of 1 M ethanolamine solution (pH 9) at a flow of 25 μL·min^−1 for 8 min. The functionalized surface was then treated with repeated injection of 4 M NaCl, as a regenerating reagent, and conditioned overnight prior to use with pH 7.4 PBS (10 mM NaH2PO4 and 150 mM NaCl) as a running buffer. Each cycle (without the need of regeneration) for binding assay to HSA was carried out in PBS/4% v/v DMSO and consisted of a run buffer injection (60 s), injection of analyte single concentration for 120 s (ranging from 1 to 200 μM) at a flow 20 μL·min^−1, and a dissociation phase for 150 s (flow 20 μL·min^−1). Each measurement was performed at least in triplicate and analyzed by using QDAT software, vers 2.2.0.7 (non-linear regression analysis of 1:1 stoichiometric reversible binding model), and double referencing.

[10] = Hydrolytic stability monitored by RP-HPLC; assay type: physicochemical; conditions: 0.15 M KCl
Description: In particular, the transformation of the DHPIQ-2-aldehyde via Mannich reaction (8b,c) opens the road to future developments of new water-soluble antiproliferative DHPIQ derivatives endowed with the ability to inhibit P-gp and reverse MDR.

P-glycoprotein (P-gp), sequence (P08183 whole entry): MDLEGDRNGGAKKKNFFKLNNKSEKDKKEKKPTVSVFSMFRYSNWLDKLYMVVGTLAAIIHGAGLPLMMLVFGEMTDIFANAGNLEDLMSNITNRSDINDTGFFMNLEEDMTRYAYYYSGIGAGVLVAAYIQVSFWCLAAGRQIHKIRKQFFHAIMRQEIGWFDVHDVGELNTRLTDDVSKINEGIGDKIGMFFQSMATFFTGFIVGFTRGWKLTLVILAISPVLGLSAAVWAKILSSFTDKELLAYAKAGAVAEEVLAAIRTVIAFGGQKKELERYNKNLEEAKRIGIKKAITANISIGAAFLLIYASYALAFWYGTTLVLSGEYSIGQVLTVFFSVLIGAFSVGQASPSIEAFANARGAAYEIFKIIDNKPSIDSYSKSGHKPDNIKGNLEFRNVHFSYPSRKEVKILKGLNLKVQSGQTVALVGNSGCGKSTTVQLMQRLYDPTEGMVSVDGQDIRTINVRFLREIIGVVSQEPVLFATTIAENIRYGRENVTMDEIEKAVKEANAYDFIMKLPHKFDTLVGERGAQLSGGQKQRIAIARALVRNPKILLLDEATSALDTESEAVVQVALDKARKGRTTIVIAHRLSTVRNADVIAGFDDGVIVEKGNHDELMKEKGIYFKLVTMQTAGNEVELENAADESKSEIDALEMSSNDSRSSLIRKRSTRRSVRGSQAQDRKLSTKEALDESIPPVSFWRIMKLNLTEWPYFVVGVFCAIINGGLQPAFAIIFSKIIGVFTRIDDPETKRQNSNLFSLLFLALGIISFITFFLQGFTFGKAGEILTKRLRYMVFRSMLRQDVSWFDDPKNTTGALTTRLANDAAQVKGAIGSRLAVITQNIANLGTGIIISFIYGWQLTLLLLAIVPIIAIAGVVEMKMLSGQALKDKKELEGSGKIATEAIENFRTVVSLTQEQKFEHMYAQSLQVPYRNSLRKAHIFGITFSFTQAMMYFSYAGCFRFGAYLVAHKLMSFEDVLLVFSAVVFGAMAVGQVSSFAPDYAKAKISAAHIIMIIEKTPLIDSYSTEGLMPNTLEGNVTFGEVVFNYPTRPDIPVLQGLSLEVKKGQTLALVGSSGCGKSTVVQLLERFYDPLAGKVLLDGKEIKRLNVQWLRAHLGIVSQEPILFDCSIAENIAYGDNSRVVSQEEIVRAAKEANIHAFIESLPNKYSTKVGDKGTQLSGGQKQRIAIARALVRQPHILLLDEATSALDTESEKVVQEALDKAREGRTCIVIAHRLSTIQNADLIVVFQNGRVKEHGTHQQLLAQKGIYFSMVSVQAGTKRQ
human serum albumin (HSA), sequence (P02768 25-609): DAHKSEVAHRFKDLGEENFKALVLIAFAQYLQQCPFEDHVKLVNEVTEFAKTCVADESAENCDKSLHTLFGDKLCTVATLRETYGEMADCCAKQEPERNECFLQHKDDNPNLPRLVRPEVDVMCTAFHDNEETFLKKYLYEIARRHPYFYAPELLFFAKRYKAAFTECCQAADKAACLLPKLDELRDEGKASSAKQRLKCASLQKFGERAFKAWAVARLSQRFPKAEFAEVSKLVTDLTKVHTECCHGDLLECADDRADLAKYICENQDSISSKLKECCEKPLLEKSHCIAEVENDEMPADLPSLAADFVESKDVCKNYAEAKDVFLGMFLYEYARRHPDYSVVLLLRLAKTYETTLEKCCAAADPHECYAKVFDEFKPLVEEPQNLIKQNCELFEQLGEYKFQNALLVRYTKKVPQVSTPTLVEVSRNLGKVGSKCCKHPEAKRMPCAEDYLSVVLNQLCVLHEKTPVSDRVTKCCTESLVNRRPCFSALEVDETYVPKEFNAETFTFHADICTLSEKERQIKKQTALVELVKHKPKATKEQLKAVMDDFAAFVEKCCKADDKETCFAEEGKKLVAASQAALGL
multidrug-resistance-associated protein-1 (MRP1), sequence (P33527 whole entry): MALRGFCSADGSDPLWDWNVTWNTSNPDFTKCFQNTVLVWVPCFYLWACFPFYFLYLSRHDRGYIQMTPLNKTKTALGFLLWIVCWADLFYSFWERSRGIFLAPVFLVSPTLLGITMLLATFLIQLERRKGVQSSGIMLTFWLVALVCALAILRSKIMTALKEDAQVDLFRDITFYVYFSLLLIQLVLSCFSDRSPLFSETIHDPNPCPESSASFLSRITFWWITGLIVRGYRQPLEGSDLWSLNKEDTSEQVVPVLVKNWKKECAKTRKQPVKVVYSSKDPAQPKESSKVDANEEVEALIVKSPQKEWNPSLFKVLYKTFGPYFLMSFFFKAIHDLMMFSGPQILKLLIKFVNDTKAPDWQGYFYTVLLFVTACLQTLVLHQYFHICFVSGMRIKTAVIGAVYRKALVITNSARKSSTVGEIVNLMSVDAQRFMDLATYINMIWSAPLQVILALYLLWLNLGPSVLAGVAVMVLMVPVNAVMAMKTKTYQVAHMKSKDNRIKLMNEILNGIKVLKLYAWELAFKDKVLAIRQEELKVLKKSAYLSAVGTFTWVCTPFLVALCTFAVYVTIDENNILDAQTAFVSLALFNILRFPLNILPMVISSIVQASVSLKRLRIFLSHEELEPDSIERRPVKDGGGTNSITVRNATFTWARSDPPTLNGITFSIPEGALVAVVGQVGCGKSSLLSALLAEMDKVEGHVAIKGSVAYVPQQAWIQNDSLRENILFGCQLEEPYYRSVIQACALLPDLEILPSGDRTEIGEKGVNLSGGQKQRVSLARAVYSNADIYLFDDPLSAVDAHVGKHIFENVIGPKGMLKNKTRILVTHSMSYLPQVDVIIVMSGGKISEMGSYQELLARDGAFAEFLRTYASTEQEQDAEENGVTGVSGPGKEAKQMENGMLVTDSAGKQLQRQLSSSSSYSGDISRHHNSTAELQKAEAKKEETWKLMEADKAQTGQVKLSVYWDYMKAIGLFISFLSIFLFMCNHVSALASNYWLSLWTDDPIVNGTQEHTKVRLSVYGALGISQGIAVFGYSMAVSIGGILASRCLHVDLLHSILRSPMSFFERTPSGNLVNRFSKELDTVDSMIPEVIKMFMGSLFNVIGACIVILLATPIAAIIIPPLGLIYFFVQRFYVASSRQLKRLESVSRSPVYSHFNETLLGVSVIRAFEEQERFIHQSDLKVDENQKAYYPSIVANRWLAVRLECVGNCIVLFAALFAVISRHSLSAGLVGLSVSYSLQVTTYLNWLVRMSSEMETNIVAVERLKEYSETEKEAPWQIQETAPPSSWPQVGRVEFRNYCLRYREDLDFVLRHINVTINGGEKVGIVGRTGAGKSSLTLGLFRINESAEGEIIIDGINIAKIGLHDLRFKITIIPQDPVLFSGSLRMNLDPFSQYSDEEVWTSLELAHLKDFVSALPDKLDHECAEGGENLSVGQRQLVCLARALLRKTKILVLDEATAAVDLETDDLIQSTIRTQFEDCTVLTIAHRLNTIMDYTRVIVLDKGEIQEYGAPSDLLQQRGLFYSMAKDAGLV

CC[C@@]1(O)C(=O)OCc2c1cc1n(c2=O)Cc2cc3ccccc3nc2-1 [Camptothecin, reference compound] gave an IC50 [1] of 16 µM, an IC50 [2] of 12.3 µM and an IC50 [3] of 0.33 µM. For the same compound, the IC50 [4] was 3.32 µM.
Work on COc1ccc(-c2c(C=O)cn3c2-c2cc(OC)c(OC)cc2CC3)cc1 [Compound 4b] yielded an IC50 [1] of 95.2 µM, an IC50 [2] of over 100 µM and an IC50 [3] of over 100 µM. For the same compound, the IC50 [4] was over 100 µM, the solubility at 2 h [5] was 19.8 µM (≈ 7.2 µg/mL) and the “Log k′w” value [6] was 3.39. For the same compound, the IC50 ([7]; P-gp, IC50, MDCK-MDR1 cells) was 4.48 µM, the IC50 [8] was 6.42 µM and the Kd [9] was 1.95 µM.
Work on COc1cc2c(cc1OC)-c1c(-c3ccc(Cl)cc3)c(C(=O)O)cn1CC2 [Compound 5a, 1-(4-Chlorophenyl)-8,9-dimethoxy-5,6-dihydropyrrolo[2,1-a]isoquinoline-2-carboxylic acid] yielded an IC50 [1] of over 100 µM, an IC50 [2] of over 100 µM and an IC50 [3] of over 100 µM. For the same compound, the IC50 [4] was over 100 µM and the melting point was 210 to 215 °C.
With CCOc1ccc(-c2c(C(=O)O)cn3c2-c2cc(OCC)c(OCC)cc2CC3)cc1OCC [Compound 5c, 1-(3,4-Diethoxyphenyl)-8,9-diethoxy-5,6-dihydropyrrolo[2,1-a]isoquinoline-2-carboxylic acid] the solubility at 2 h [5] was 14.6 µM (≈ 6.8 µg/mL), the IC50 ([7]; P-gp, IC50, MDCK-MDR1 cells) was < 0.5 µM and 0.35 µM and the “P-gp/MRP1 selectivity (toward P-gp)” value [7] was “more than two orders of magnitude”. For the same compound, the IC50 [8] was over 100 µM and the Kd [9] was 5.2 µM.
COc1cc2c(cc1OC)-c1c(-c3ccc(Cl)cc3)c(C#N)cn1CC2 [Compound 6a] gave an IC50 [1] of over 100 µM, an IC50 [2] of over 100 µM and an IC50 [3] of over 100 µM. The IC50 [4] was over 100 µM, the solubility at 2 h [5] was 1.42 µM (≈ 0.518 µg/mL) and the “Log k′w” value [6] was 4.42. The IC50 ([7]; P-gp, IC50, MDCK-MDR1 cells) was 5.89 µM, the IC50 [8] was 16.6 µM and the Kd [9] was 4.6 µM.
For CCOc1ccc(-c2c(C#N)cn3c2-c2cc(OCC)c(OCC)cc2CC3)cc1OCC [Compound 6c], the IC50 [1] was over 100 µM, the IC50 [2] was over 100 µM and the IC50 [3] was over 100 µM. For the same compound, the IC50 [4] was over 100 µM, the solubility at 2 h [5] was 1.06 µM (≈ 0.473 µg/mL) and the “Log k′w” value [6] was 5.09. The IC50 ([7]; P-gp, IC50, MDCK-MDR1 cells) was < 0.5 µM and 0.39 µM, the “P-gp/MRP1 selectivity (toward P-gp)” value [7] was “more than two orders of magnitude” and the IC50 [8] was over 100 µM. It also gave a Kd [9] of 1.8 µM.
In the case of CCOc1ccc(-c2c(C#N)c(C)n3c2-c2cc(OCC)c(OCC)cc2CC3)cc1OCC [Compound 6d, 1-(3,4-Diethoxyphenyl)-8,9-diethoxy-3-methyl-5,6-dihydropyrrolo[2,1-a]isoquinoline-2-carbonitrile], the IC50 [1] is reported as over 100 µM, the IC50 [2] is reported as over 100 µM and the IC50 [3] is reported as over 100 µM. It also gave an IC50 [4] of over 100 µM.
Compound CCOc1ccc(-c2c(C#N)c(-c3ccccc3)n3c2-c2cc(OCC)c(OCC)cc2CC3)cc1OCC [Compound 6e, 1-(3,4-Diethoxyphenyl)-8,9-diethoxy-3-phenyl-5,6-dihydropyrrolo [2,1-a]isoquinoline-2-carbonitrile] has an IC50 [1] of over 100 µM and a melting point of 271 to 273 °C.
For CCOC(=O)c1cn2c(c1-c1ccc(OCC)c(OCC)c1)-c1cc(OCC)c(OCC)cc1CC2 [Compound 7c, Ethyl 1-(3,4-Diethoxyphenyl)-8,9-diethoxy-5,6-dihydro pyrrolo[2,1-a]isoquinoline-2-carboxylate], the solubility at 2 h [5] was 41.7 µM (≈ 20.6 µg/mL), the “Log k′w” value [6] was 5.49 and the “Hydrolytic stability at pH 2” value ([10]; 0.01 M HClaq, pH 2, 25 °C) was “stable over 4 h”. For the same compound, the “Hydrolytic stability at pH 7.4” value ([10]; 50 mM PBS, pH 7.4, 25 °C) was “stable over 4 h”, the IC50 ([7]; P-gp, IC50, MDCK-MDR1 cells) was < 0.5 µM and 0.32 µM and the IC50 [8] was 3.23 µM. It also gave a Kd [9] of 12.1 µM.
With COc1cccc2c1C(=O)c1c(O)c3c(c(O)c1C2=O)C[C@@](O)(C(=O)CO)C[C@@H]3O[C@H]1C[C@H](N)[C@H](O)[C@H](C)O1 [Doxorubicin, reference compound] the IC50 [1] was 0.29 µM, the IC50 [2] was 0.14 µM and the IC50 [3] was 0.89 µM. It also gave an IC50 [4] of 0.38 µM.
Compound COc1cc2c(cc1OC)CN(CCC=C1CCCc3c(OC)cccc31)CC2 [MC18, reference compound] has an IC50 ([7]; read-out: P-gp, IC50, MDCK-MDR1 cells) of 1.2 µM.
